Measured values published in ChEMBL document CHEMBL2396531, “Hybrid molecule from O2-(2,4-dinitrophenyl)diazeniumdiolate and oleanolic acid: a glutathione S-transferase π-activated nitric oxide prodrug with selective anti-human hepatocellular carcinoma activity and improved stability” (J Med Chem, 2013).
Calls of active or inactive are those of the source. No cut-off for these calls is given here.

Key:
[1] = system: SMMC-7721; assay: Cytotoxicity against human SMMC7721 cells at 30 uM after 24 hrs by MTT assay; assay type: functional
[2] = system: Bel-7402; assay: Cytotoxicity against human Bel7402 cells at 30 uM after 24 hrs by MTT assay; assay type: functional
[3] = system: HepG2; assay: Cytotoxicity against human HepG2 cells at 30 uM after 24 hrs by MTT assay; assay type: functional
[4] = system: HepG2; assay: Cytotoxicity against human HepG2 cells at 10 to 100 uM after 24 hrs by MTT assay; assay type: functional, cell-based
[5] = system: HepG2; assay: Induction of intracellular NO release in human HepG2 cells at 30 uM after 6 hrs by Griess assay; assay type: functional, cell-based

Structure (SMILES)	Activity [1]	Activity [2]	Activity [3]	Activity [4]	Activity [5]
CN(C)/[N+]([O-])=N\Oc1cc(NCCC(=O)O[C@H]2CC[C@]3(C)[C@H]4CC=C5[C@@H]6CC(C)(C)CC[C@]6(C(=O)O[C@@H]6O[C@H](CO)[C@H](O)[C@H](O)[C@H]6O)CC[C@@]5(C)[C@]4(C)CC[C@H]3C2(C)C)c([N+](=O)[O-])cc1[N+](=O)[O-]	Active	Active	Active		
CC1(C)CC[C@]2(C(=O)O[C@@H]3O[C@H](CO)[C@H](O)[C@H](O)[C@H]3O)CC[C@]3(C)C(=CC[C@@H]4[C@@]5(C)CC[C@H](O)C(C)(C)[C@@H]5CC[C@]43C)[C@@H]2C1				Active	
C[C@H](Nc1cc(O/N=[N+](\[O-])N(C)CCO)c([N+](=O)[O-])cc1[N+](=O)[O-])C(=O)O[C@H]1CC[C@]2(C)[C@H]3CC=C4[C@@H]5CC(C)(C)CC[C@]5(C(=O)O[C@@H]5O[C@H](CO)[C@H](O)[C@H](O)[C@H]5O)CC[C@@]4(C)[C@]3(C)CC[C@H]2C1(C)C	Active	Active	Active		
CN(CCO)/[N+]([O-])=N/Oc1cc(NCCCC(=O)O[C@H]2CC[C@]3(C)[C@H]4CC=C5[C@@H]6CC(C)(C)CC[C@]6(C(=O)O[C@@H]6O[C@H](CO)[C@H](O)[C@H](O)[C@H]6O)CC[C@@]5(C)[C@]4(C)CC[C@H]3C2(C)C)c([N+](=O)[O-])cc1[N+](=O)[O-]	Active	Active	Active		
CC(C)C[C@H](Nc1cc(O/N=[N+](\[O-])N(C)CCO)c([N+](=O)[O-])cc1[N+](=O)[O-])C(=O)O[C@H]1CC[C@]2(C)[C@H]3CC=C4[C@@H]5CC(C)(C)CC[C@]5(C(=O)O[C@@H]5O[C@H](CO)[C@H](O)[C@H](O)[C@H]5O)CC[C@@]4(C)[C@]3(C)CC[C@H]2C1(C)C	Active	Active	Active		
CN(CCO)/[N+]([O-])=N\Oc1cc(N2CCN(CC(=O)O)CC2)c([N+](=O)[O-])cc1[N+](=O)[O-]				Active	
CN(CCO)/[N+]([O-])=N\Oc1cc(NCCC(=O)O[C@H]2CC[C@]3(C)[C@H]4CC=C5[C@@H]6CC(C)(C)CC[C@]6(C(=O)O[C@@H]6O[C@H](CO)[C@H](O)[C@H](O)[C@H]6O)CC[C@@]5(C)[C@]4(C)CC[C@H]3C2(C)C)c([N+](=O)[O-])cc1[N+](=O)[O-]					Active
CC1(C)CC[C@]2(C(=O)O[C@@H]3O[C@H](CO)[C@H](O)[C@H](O)[C@H]3O)CC[C@]3(C)C(=CC[C@@H]4[C@@]5(C)CC[C@H](OC(=O)CCNc6cc(O/N=[N+](/[O-])N7CCN(Cc8ccccc8)CC7)c([N+](=O)[O-])cc6[N+](=O)[O-])C(C)(C)[C@@H]5CC[C@]43C)[C@@H]2C1	Active	Active	Active		
CN1CCN(/[N+]([O-])=N\Oc2cc(NCCC(=O)O[C@H]3CC[C@]4(C)[C@H]5CC=C6[C@@H]7CC(C)(C)CC[C@]7(C(=O)O[C@@H]7O[C@H](CO)[C@H](O)[C@H](O)[C@H]7O)CC[C@@]6(C)[C@]5(C)CC[C@H]4C3(C)C)c([N+](=O)[O-])cc2[N+](=O)[O-])CC1	Active	Active	Active		
CCN(CC)/[N+]([O-])=N\Oc1cc(NCCC(=O)O[C@H]2CC[C@]3(C)[C@H]4CC=C5[C@@H]6CC(C)(C)CC[C@]6(C(=O)O[C@@H]6O[C@H](CO)[C@H](O)[C@H](O)[C@H]6O)CC[C@@]5(C)[C@]4(C)CC[C@H]3C2(C)C)c([N+](=O)[O-])cc1[N+](=O)[O-]	Active	Active	Active		
CN(CCO)/[N+]([O-])=N/Oc1cc(N[C@@H](Cc2ccccc2)C(=O)O[C@H]2CC[C@]3(C)[C@H]4CC=C5[C@@H]6CC(C)(C)CC[C@]6(C(=O)O[C@@H]6O[C@H](CO)[C@H](O)[C@H](O)[C@H]6O)CC[C@@]5(C)[C@]4(C)CC[C@H]3C2(C)C)c([N+](=O)[O-])cc1[N+](=O)[O-]	Active	Active	Active		
